We go through 7 compounds from EP4678638A1, “NEW E3 UBIQUITIN LIGASE LIGAND, PROTEIN DEGRADATION AGENT AND USE THEREOF” (priority 2023, dated 2024).

The target of one assay is T1, CDK4 (Homo sapiens, UniProt P11802).
T1 construct: evaluate the effects of the compounds of the present disclosure on the expression of target proteins in cells; endogenous in cells; host or cells: MDA-MB-231
As to the kind of experiment: Western blot degradation of CDK4 (MDA-MB-231 Cell). In kind it is cell-based. Conditions: Table D3. In outline:
(§1)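 After compound exposure, cells were harvested and lysates run on SDS-PAGE, transferred to nitrocellulose and probed with antibodies. Remaining target (%) was computed from band grayscale relative to an internal control protein and normalised; degradation (%) was 100% minus that.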

The test system of the next assay is 22RV1. Description: CCK-8 proliferation, 22RV1. In kind it is cell-based. Conditions: Homo sapiens, 96 hours, read-out: Inhibitory activity (IC50) on tumor cell proliferation, 22RV1. On the procedure:
The tumor cells used herein were cultured in a cell culture medium listed in table A1 at 37°C in an incubator with 5% CO2. Prior to experimentation, all cell lines used were correctly identified by STR profiling, and tested negative for mycoplasma contamination using a mycoplasma detection kit through routine screenings. Table A1. Tumor cells and cell culture medium used in the present disclosure
IC50 values of the compounds of the present disclosure (including the compounds in Table 1, and compounds of examples) were measured using the Meilun Cell Counting Kit-8 kit from Dalian Meilun Biotech Co., Ltd. Assay details are as follows: tumor cells were seeded in a 96-well plate at a density listed in Table A2. After 24h, 100 µL of the inoculated cells were treated with 0.5µL of the compounds of the present disclosure (including the compounds in Tables 1 and 2, and compounds of examples) at 10 different successively decreasing concentrations (starting at the highest concentration of 10µM; 5-fold serial dilutions). After the cells were treated with the compounds of the present disclosure for a period of time, the cell viability detection reagent was added to the culture medium for cell viability assessment according to the instructions provided with the CCK-8 kit. […] The growth inhibition of the compounds of the present disclosure on cells was plotted by Prism Graphpad software, and the IC50 values of the compounds of the present disclosure were calculated therefrom. […] Seeding protocol and treatment time for tumor cells

A further assay concerns the target T2, CDK6 (Homo sapiens, UniProt Q00534).
T2 construct: evaluate the effects of the compounds of the present disclosure on the expression of target proteins in cells; endogenous in cells; host or cells: MDA-MB-231
Description: Western blot degradation of CDK6 (MDA-MB-231 Cell). In kind it is cell-based. Conditions: Table D3. In outline: as §1

For another assay, the system named is SR. Description: CCK-8 proliferation, SR. Type of assay: cell-based, Human. Conditions: Homo sapiens, SR; CCK-8; 72 hours; read-out: Inhibitory activity (IC50) on tumor cell proliferation, SR. Summed up: (§2)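 Tumor cells were cultured at 37°C with 5% CO2, seeded, and after 24h treated with compounds at 10 concentrations starting at 10µM (5-fold serial dilutions).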

A further assay deals with MCF7. Description: CCK-8 proliferation, MCF7 (MCF-7). Type of assay: cell-based. Conditions: Homo sapiens, MCF7; CCK-8; read-out: Inhibitory activity (IC50) on tumor cell proliferation, MCF7. In outline: as §2
The next assay relates to H1975. Description: CCK-8 proliferation, NCI-H1975 (H1975). Type of assay: cell-based, Human. Conditions: Homo sapiens, NCI-H1975; CCK-8; 96 hours; read-out: Inhibitory activity (IC50) on tumor cell proliferation, H1975. In outline: as §2
For the next assay, the system named is CCRF-CEM. Description: CCK-8 proliferation, CCRF-CEM. In kind it is cell-based, Human. Conditions: Homo sapiens, CCRF-CEM; CCK-8; 96 hours; read-out: Inhibitory activity (IC50) on tumor cell proliferation, CCRF-CEM. In outline:
as §2

The test system of a further assay is MV-4-11. As to the kind of experiment: CCK-8 proliferation, MV-4-11. Type of assay: cell-based, Human. Conditions: Homo sapiens, MV4-11; CCK-8; 72 or 96 hours; read-out: Inhibitory activity (IC50) on tumor cell proliferation, MV-4-11. Summed up:
as §2

In another assay the test system is MM.1S. Description: CCK-8 proliferation, MM.1S. Type of assay: cell-based. Conditions: Homo sapiens, MM1.S; CCK-8; 72 hours; read-out: Inhibitory activity (IC50) on tumor cell proliferation, MM1S. Summed up: as §2
The test system of another assay is Kasumi-1. Description: CCK-8 proliferation, Kasumi-1. In kind it is cell-based, Human. Conditions: Homo sapiens, Kasumi 1, 72 hours, read-out: Inhibitory activity (IC50) on tumor cell proliferation, Kasumi-1. Summed up:
as §2

T1 sequence (P11802 whole entry): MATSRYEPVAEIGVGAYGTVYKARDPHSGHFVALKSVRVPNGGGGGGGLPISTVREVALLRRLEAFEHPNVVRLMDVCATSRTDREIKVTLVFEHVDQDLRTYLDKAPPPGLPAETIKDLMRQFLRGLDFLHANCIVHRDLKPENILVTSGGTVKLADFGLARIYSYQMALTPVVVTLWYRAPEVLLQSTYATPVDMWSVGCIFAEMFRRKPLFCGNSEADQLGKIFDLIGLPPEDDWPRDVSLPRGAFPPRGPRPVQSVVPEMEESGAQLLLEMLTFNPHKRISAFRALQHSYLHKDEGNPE
T2 sequence (Q00534 whole entry): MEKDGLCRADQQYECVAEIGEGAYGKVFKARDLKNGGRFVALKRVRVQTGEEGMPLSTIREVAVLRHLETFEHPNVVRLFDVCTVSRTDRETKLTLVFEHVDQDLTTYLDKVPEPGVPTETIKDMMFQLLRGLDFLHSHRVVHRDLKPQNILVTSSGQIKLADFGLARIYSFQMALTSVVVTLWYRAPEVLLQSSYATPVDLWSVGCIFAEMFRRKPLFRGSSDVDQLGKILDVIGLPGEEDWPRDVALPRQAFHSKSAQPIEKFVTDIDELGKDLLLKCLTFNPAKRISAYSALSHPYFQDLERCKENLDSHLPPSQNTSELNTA

Turning to `Cc1nc2c(F)cc(-c3nc(Nc4ccc(N5CCC(N(C)Cc6ccc(N7CCC(=O)NC7=O)cn6)CC5)cn4)ncc3F)cc2n1C(C)C` [GT-06840, 1-(6-(((1-(6-((5-fluoro-4-(4-fluoro-1-isopropyl-2-methyl-1H-benzo[d]imidazol-6-yl)pyrimidin-2-yl)amino)pyridin-3-yl)piperidin-4-yl)(methyl)amino)methyl)pyridin-3-yl)dihydropyrimidine-2,4(1H,3H)-dione], on CDK4, the “Degradation of substrate protein CDK4 (substrate protein remaining %)” value was “A (A is defined as 0% ≤ substrate protein remaining % ≤ 80%)”. For the same compound, the IC50 in the assay on 22RV1 fell in the range of 50 to 100 nM; in the assay on SR, 50 to 100 nM; in the assay with MCF7, 1 to 10 nM; in the assay with H1975, 100 to 500 nM; in the assay on CCRF-CEM, 100 to 500 nM; in the assay with MV-4-11, 50 to 100 nM. Besides, the IC50 in the assay with MM.1S and with Kasumi-1 was 100 to 500 nM throughout. The “Degradation of substrate protein CDK6 (substrate protein remaining %)” value at CDK6 is “B (B is defined as substrate protein remaining % > 80%)”.

Take `Cc1nc2c(F)cc(-c3nc(Nc4ccc(N5CCC(N(C)Cc6ccc(N7CCC(=O)NC7=O)nc6)CC5)cn4)ncc3F)cc2n1C(C)C` [GT-06841, 1-(5-(((1-(6-((5-fluoro-4-(4-fluoro-1-isopropyl-2-methyl-1H-benzo[d]imidazol-6-yl)pyrimidin-2-yl)amino)pyridin-3-yl)piperidin-4-yl)(methyl)amino)methyl)pyridin-2-yl)dihydropyrimidine-2,4(1H,3H)-dione]: the “Degradation of substrate protein CDK4 (substrate protein remaining %)” value on CDK4 was “A (A is defined as 0% ≤ substrate protein remaining % ≤ 80%)”. Further, the IC50 with 22RV1 lay in the range of 10 to 50 nM; with SR it was 10 to 50 nM; with MCF7, 50 to 100 nM; in the assay with H1975 it was 100 to 500 nM; in the assay on CCRF-CEM it was 100 to 500 nM; in the assay with MV-4-11 it was 10 to 50 nM. Besides, the results for the IC50 in the assay on MM.1S and with Kasumi-1 were 100 to 500 nM and 50 to 100 nM, respectively. On CDK6, the “Degradation of substrate protein CDK6 (substrate protein remaining %)” value is given as “A (A is defined as 0% ≤ substrate protein remaining % ≤ 80%)”.

Take `Cc1nc2c(F)cc(-c3nc(Nc4ccc(N5CCC(N6CCN(Cc7cccc(N8CCC(=O)NC8=O)c7)CC6)CC5)cn4)ncc3F)cc2n1C(C)C` [GT-06740, 1-(3-((4-(1-(6-((5-fluoro-4-(4-fluoro-1-isopropyl-2-methyl-1H-benzo[d]imidazol-6-yl)pyrimidin-2-yl)amino)pyridin-3-yl)piperidin-4-yl)piperazin-1-yl)methyl)phenyl)dihydropyrimidine-2,4(1H,3H)-dione]: the “Degradation of substrate protein CDK4 (substrate protein remaining %)” value on CDK4 was “A (A is defined as 0% ≤ substrate protein remaining % ≤ 80%)”. The IC50 in the assay on 22RV1 fell in the range of 10 to 50 nM; in the assay with SR, 10 to 50 nM; in the assay with MCF7 it was 50 to 100 nM; in the assay with H1975, 100 to 500 nM; with CCRF-CEM it was 100 to 500 nM; with MV-4-11, 10 to 50 nM. The values for the IC50 in the assay with MM.1S and with Kasumi-1 were 100 to 500 nM and 50 to 100 nM, respectively. At CDK6, the “Degradation of substrate protein CDK6 (substrate protein remaining %)” value was “B (B is defined as substrate protein remaining % > 80%)”.

Take `Cc1nc2c(F)cc(-c3nc(Nc4ccc(N5CCC(N6CCN(Cc7ccc(N8CCC(=O)NC8=O)cn7)CC6)CC5)cn4)ncc3F)cc2n1C(C)C` [GT-06741, 1-(6-((4-(1-(6-((5-fluoro-4-(4-fluoro-1-isopropyl-2-methyl-1H-benzo[d]imidazol-6-yl)pyrimidin-2-yl)amino)pyridin-3-yl)piperidin-4-yl)piperazin-1-yl)methyl)pyridin-3-yl)dihydropyrimidine-2,4(1H,3H)-dione]: at CDK4, the “Degradation of substrate protein CDK4 (substrate protein remaining %)” value is recorded as “A (A is defined as 0% ≤ substrate protein remaining % ≤ 80%)”. In addition, the IC50 in the assay with 22RV1 was 10 to 50 nM; in the assay with SR, 10 to 50 nM; in the assay with MCF7, 50 to 100 nM; with H1975, 100 to 500 nM; in the assay with CCRF-CEM, 50 to 100 nM; in the assay with MV-4-11, 10 to 50 nM. Besides, the IC50 in the assay with MM.1S and with Kasumi-1 was 100 to 500 nM throughout. Besides, the “Degradation of substrate protein CDK6 (substrate protein remaining %)” value at CDK6 is listed as “B (B is defined as substrate protein remaining % > 80%)”.

Turning to `Cc1nc2c(F)cc(-c3nc(Nc4ccc(CN5CCN(Cc6cccc(N7CCC(=O)NC7=O)c6)CC5)cn4)ncc3F)cc2n1C(C)C` [GT-06666, 1-(3-((4-((6-((5-fluoro-4-(4-fluoro-1-isopropyl-2-methyl-1H-benzo[d]imidazol-6-yl)pyrimidin-2-yl)amino)pyridin-3-yl)methyl)piperazin-1-yl)methyl)phenyl)dihydropyrimidine-2,4(1H,3H)-dione], the “Degradation of substrate protein CDK4 (substrate protein remaining %)” value on CDK4 is “A (A is defined as 0% ≤ substrate protein remaining % ≤ 80%)”. The IC50 in the assay with 22RV1 fell in the range of 50 to 100 nM; in the assay with SR, 100 to 500 nM; in the assay with MCF7, 100 to 500 nM; in the assay with H1975, 500 to 1000 nM; in the assay on CCRF-CEM it was 100 to 500 nM; in the assay with MV-4-11, 10 to 50 nM. Also, the IC50 in the assay with MM.1S was 500 to 1000 nM; in the assay on Kasumi-1, 100 to 500 nM. Moreover, the “Degradation of substrate protein CDK6 (substrate protein remaining %)” value on CDK6 was “A (A is defined as 0% ≤ substrate protein remaining % ≤ 80%)”.

As for `Cc1nc2c(F)cc(-c3nc(Nc4ccc(N5CCC(N(C)Cc6ccc(N7CCC(=O)NC7=O)cc6)CC5)cn4)ncc3F)cc2n1C(C)C` [GT-06838, 1-(4-(((1-(6-((5-fluoro-4-(4-fluoro-1-isopropyl-2-methyl-1H-benzo[d]imidazol-6-yl)pyrimidin-2-yl)amino)pyridin-3-yl)piperidin-4-yl)(methyl)amino)methyl)phenyl)dihydropyrimidine-2,4(1H,3H)-dione], the “Degradation of substrate protein CDK4 (substrate protein remaining %)” value at CDK4 is “A (A is defined as 0% ≤ substrate protein remaining % ≤ 80%)”. Moreover, the IC50 with 22RV1 lay in the range of 10 to 50 nM; with SR, 10 to 50 nM; with MCF7 it was 50 to 100 nM; with H1975, 100 to 500 nM; in the assay with CCRF-CEM it was 100 to 500 nM; with MV-4-11 it was 10 to 50 nM. Also, the values for the IC50 with MM.1S and with Kasumi-1 were 100 to 500 nM and 50 to 100 nM, respectively. The “Degradation of substrate protein CDK6 (substrate protein remaining %)” value at CDK6 was “B (B is defined as substrate protein remaining % > 80%)”.

`Cc1nc2c(F)cc(-c3nc(Nc4ccc(N5CCC(N6CCN(Cc7cccc(NC8CCC(=O)NC8=O)c7)CC6)CC5)cn4)ncc3F)cc2n1C(C)C` (stereo not shown) [GT-06743, 3-((3-((4-(1-(6-((5-fluoro-4-(4-fluoro-1-isopropyl-2-methyl-1H-benzo[d]imidazol-6-yl)pyrimidin-2-yl)amino)pyridin-3-yl)piperidin-4-yl)piperazin-1-yl)methyl)phenyl)amino)pip eridine-2,6-dione]: on CDK4, the “Degradation of substrate protein CDK4 (substrate protein remaining %)” value is “A (A is defined as 0% ≤ substrate protein remaining % ≤ 80%)”. Also, the IC50 in the assay with 22RV1 was in the range of 10 to 50 nM; in the assay on SR, 50 to 100 nM; in the assay with MCF7, 100 to 500 nM; with H1975, 100 to 500 nM; in the assay with CCRF-CEM it was 100 to 500 nM; with MV-4-11, 50 to 100 nM. Moreover, the IC50 in the assay with MM.1S and in the assay on Kasumi-1 was 100 to 500 nM each time. At CDK6, the “Degradation of substrate protein CDK6 (substrate protein remaining %)” value was “B (B is defined as substrate protein remaining % > 80%)”.
